Assay results reported in patent US20060154243A1 (priority 2003, published 2006).

tested on: serum 37 (individual 37); assay type: binding, human

Sequence | Binding of serum 37 to linear peptides of Orf14 of SARS-CoV TOR2
EIQLLAAVGEILLLE | 0.6
EWLAEVVKLPSRYCC | 1.0
GEILLLEWLAEVVKL | 0.6
HHVVAVIQEIQLLAA | 0.5

tested on: serum 1a (individual 1, early serum); assay type: binding, human

Sequence | Binding of serum 1a to linear peptides of Orf14 of SARS-CoV TOR2
EIQLLAAVGEILLLE | 0.6
EWLAEVVKLPSRYCC | 0.8
GEILLLEWLAEVVKL | 0.5
HHVVAVIQEIQLLAA | 0.4

tested on: serum SARS-green; assay type: binding, human

Sequence | Binding of serum SARS-green to linear peptides of Orf14 of SARS-CoV TOR2
EIQLLAAVGEILLLE | 0.3
EWLAEVVKLPSRYCC | 0.6
GEILLLEWLAEVVKL | 0.3
HHVVAVIQEIQLLAA | 0.2

tested on: serum London; assay type: binding, human

Sequence | Binding of serum London to linear peptides of Orf14 of SARS-CoV TOR2
EIQLLAAVGEILLLE | 0.4
EWLAEVVKLPSRYCC | 1.0
GEILLLEWLAEVVKL | 0.6
HHVVAVIQEIQLLAA | 0.4

tested on: rabbit serum obtained by immunizing with SARS-CoV strain Frankfurt 1; assay type: binding

Sequence | Rabbit serum linear peptides | Rabbit serum looped peptides
LIIFWFSLEIQDLEE | 0.5 | 0.7
LIMLIIFWFSLEIQD | 0.4 | 0.6
MLIIFWFSLEIQDLE | 1.7 | 0.5
WFSLEIQDLEEPCTK | 0.0 | 0.4

tested on: control serum LUMC (pooled serum of ten healthy hospital workers); assay type: binding, human

Sequence | Control serum LUMC linear peptides | Control serum LUMC looped peptides
EIQLLAAVGEILLLE | 0.8 | 0.7
EWLAEVVKLPSRYCC | 0.6 | 0.6
GEILLLEWLAEVVKL | 0.5 | 0.5
HHVVAVIQEIQLLAA | 0.4 | 0.4
LIIFWFSLEIQDLEE | 0.7 | 0.9
LIMLIIFWFSLEIQD | 1.1 | 0.7
MLIIFWFSLEIQDLE | 0.9 | 0.8
WFSLEIQDLEEPCTK | 0.5 | 0.5

tested on: serum 6 (individual 6); assay type: binding, human

Sequence | Binding of serum 6 to linear peptides of Orf14 of SARS-CoV TOR2
EIQLLAAVGEILLLE | 0.4
EWLAEVVKLPSRYCC | 0.6
GEILLLEWLAEVVKL | 0.5
HHVVAVIQEIQLLAA | 0.4

tested on: serum 62 (individual 62); assay type: binding, human

Sequence | Binding of serum 62 to linear peptides of Orf14 of SARS-CoV TOR2
EIQLLAAVGEILLLE | 0.4
EWLAEVVKLPSRYCC | 0.7
GEILLLEWLAEVVKL | 0.5
HHVVAVIQEIQLLAA | 0.3

tested on: serum 1b (individual 1, late serum); assay type: binding, human

Sequence | Binding of serum 1b to linear peptides of Orf14 of SARS-CoV TOR2
EIQLLAAVGEILLLE | 0.5
EWLAEVVKLPSRYCC | 0.6
GEILLLEWLAEVVKL | 0.4
HHVVAVIQEIQLLAA | 0.4

tested on: serum 2 (individual 2); assay type: binding, human

Sequence | Binding of serum 2 to linear peptides of Orf14 of SARS-CoV TOR2
EIQLLAAVGEILLLE | 0.5
EWLAEVVKLPSRYCC | 0.7
GEILLLEWLAEVVKL | 0.4
HHVVAVIQEIQLLAA | 0.4

tested on: control serum Blood-bank (commercial negative donor pooled serum); assay type: binding, human

Sequence | Control Serum Blood-Bank Looped peptides | Control serum Blood-bank linear peptides
EIQLLAAVGEILLLE | 0.7 | 0.4
EWLAEVVKLPSRYCC | 0.7 | 0.7
GEILLLEWLAEVVKL | 0.5 | 0.6
HHVVAVIQEIQLLAA | 0.5 | 0.4
LIIFWFSLEIQDLEE | 0.7 | 0.8
LIMLIIFWFSLEIQD | 0.7 | 0.9
MLIIFWFSLEIQDLE | 0.7 | 1.0
WFSLEIQDLEEPCTK | 0.7 | 0.6

tested on: sera SARS-green, SARS-yellow, 1a, 1b, 2, 6, 37, 62 and London; assay type: binding, human

Sequence | Recognition of the peptide by sera of individuals infected by SARS-CoV, form recognized
LIIFWFSLEIQDLEE | recognized in linear and in looped form
LIMLIIFWFSLEIQD | recognized in linear and in looped form
MLIIFWFSLEIQDLE | recognized in linear and in looped form
WFSLEIQDLEEPCTK | recognized in linear and in looped form

tested on: serum SARS-yellow; assay type: binding, human

Sequence | Binding of serum SARS-yellow to linear peptides of Orf14 of SARS-CoV TOR2
EIQLLAAVGEILLLE | 0.5
EWLAEVVKLPSRYCC | 0.3
GEILLLEWLAEVVKL | 0.3
HHVVAVIQEIQLLAA | 0.4
